Consider five compounds from US8999983B2, “Modulators of Hec1 activity and methods therefor” (Taivex Therapeutics Corporation, priority 2011, dated 2015).

Data set [1] can be described thus: Pharmacokinetics of salt forms, single oral dose. Particulars: male, CD-1, mouse, plasma. In kind it is in vivo, CD-1 mice. How it is done: (§1) Pharmacokinetics of Hec1 Inhibitor Salts: Pharmacokinetic comparison of different salt forms (HCl, tosylate, mesylate salt) was studied for the compounds as shown in Table 3 below:
(§2) Formulations for both PO (oral) and IV (intravenous) doses were prepared in saline with 2% Tween 80 and 10% DMSO. Concentrations were adjusted based on the molecular weights of the freebase and salts.
PO studies: A single dose of 10 mg/kg of each of the three test compounds was orally administered to 21 healthy male CD-1 mice (weight ranged from 18-27 g). The dosing volume was […]. Animals were fasted approximately 16 hours prior to dosing until 4 hours post dosing. Water was available to all animals during the experiment period.
(§3) Three mice were bled (ca. 1 mL) at each timepoint (0.5, 1, 1.5, 2, 4, 6, and 24 hours post-dose for PO study and 0.083, 0.5, 1, 2, 4, 6, and 24 hours post-dose for IV study) by cardiac puncture and blood was collected into K3EDTA blood collection tubes. Blood samples were centrifuged immediately at 4° C. at 3000 rpm for 10 min. Plasma samples were transferred and stored at −20° C. prior to analysis.
(§4) The plasma concentrations of 110095 (compound 27 of Table 1, the free base of all three test articles) were determined by LC MS/MS in the positive MRM mode; all doses were normalized to the freebase (110095) concentration. The mean plasma concentration from each time point (n=3) were used to calculate the PK parameters using a non-compartmental model. Pharmacokinetic parameters (Cmax, Tmax, t½, AUC, etc.) were calculated using WinNonlin Software (version 5.3, Pharsight, Sunnyvale Calif. 94086 USA), the results and absolute bioavailability results are presented in Table 6. Table 4 lists mean concentrations (ng/mL) of 110095 in mouse plasma following a single oral dose of 10 mg/kg of 110095-HCl-1007, 110095-03-03 or 110095-02-02 to CD-1 mice, and Table 5 lists mean concentrations (ng/mL) of 110095 in mouse plasma following a single IV dose of 1 mg/kg of 110095-HCl-1007, 110095-03-03 or 110095-02-02 to CD-1 mice. Table 6 lists PK parameters and absolute bioavailability result of 110095-HCl-1007, 110095-03-03 or 110095-02-02 in CD-1 mice.

A short description of data set [2]: Pharmacokinetics of salt forms, single IV dose. In kind it is in vivo, CD-1 mice. Particulars: male, CD-1, mouse. How it is done:
as §1, §2
IV studies: A single dose of 1 mg/kg of each of the three test articles was IV administered to 21 healthy male CD-1 mice (weight ranged from 18-27 g). The dosing volume was 5 mL/kg. Food and water were available to all animals during the experiment period.
as §3, §4

In a further data set the test system is MDA-MB-468. In words: Antiproliferation assay (MTS), MDA-MB-468 cells. The format is cell-based. Particulars: Homo sapiens, MDA-MB-468, 96 h, Table 1, read-out: Antiproliferative IC50 MDA-MB-468. The method, then:
(§5) Cells were grown at 37° C. in a humidified atmosphere consisting of 5% CO2 and 95% air.
(§6) Antiproliferation Assays: Cells were plated in a 96-well culture plate with 2000-8000 cells per well. The compounds were prepared in DMSO and used to treat cells in a final concentration of less than 1% DMSO. Compound treatment started after overnight incubation of cells (T0). […] Compound was added to the plate in triplicate wells, and the plates were then incubated for 96 hours. DMSO (compound diluent) was also included and added to the plate in control wells. Cell viability was then determined by MTS assay using the CellTiter 96® aqueous non-radioactive cell proliferation assay system (Promega, Madison, Wis. 53711 USA). A plate reader (Vmax, Molecular Devices, Sunnyvale Calif. 94089 USA) was used to determine the optical densities, and the results were used to deduce concentration-response curves. […] The results were analyzed using linear regression software (GraphPad Prism 5; GraphPad Software Inc. La Jolla Calif. 92037 USA).

For the next data set, the system named is K562. In words: Antiproliferation assay (MTS), K562 cells. In kind it is cell-based. Particulars: Homo sapiens, K562, 96 h, Table 1, read-out: Antiproliferative IC50 K562. How it is done:
as §5, §6

A further data set relates to MDA-MB-231. Put plainly: Antiproliferation assay (MTS), MDA-MB-231 cells. Conditions: Homo sapiens, MDA-MB-231, 96 h, read-out: Antiproliferative IC50 MDA-MB-231, Table 1. The format is cell-based. How it is done: as §5, §6
The test system of the next data set is Hela. Put plainly: Antiproliferation assay (MTS), HeLa cells. Conditions: Homo sapiens, 96 h, Table 1, read-out: Antiproliferative IC50 Hela. The format is cell-based. The method, then:
as §5, §6

Data set [3] deals with caspase-3, PARP, Mcl-1 and XIAP. In words: Immunoblot of apoptotic pathway proteins. Conditions: 1 μM, 24 or 48 hours. The format is cell-based. How it is done:
Immunoblot Analysis: For immunoblotting experiments, cells were plated in a 6-well culture plate and cultured overnight. Cells were incubated with the test compounds for the indicated time and whole cell lysate was harvested by adding 1×SDS-PAGE Sample Buffer (62.5 mM Tris-HCl (pH 6.8 at 25° C.), 2% w/v SDS, 10% glycerol, 50 mM DTT, and 0.01% w/v bromophenol blue or phenol red). Proteins were separated by SDS-PAGE electrophoresis and transferred to PVDF membrane. Protein expression was immunoblotted using various primary antibodies and detected using Immobilon Western Chemiluminescent HRP Substrate (Millipore, Billerica Mass. 01821 USA). Antibodies used include anti-Cleaved Caspase3, (Rabbit, Cell Signaling Technology, Danvers Mass. 01923 USA); anti-PARP (Rabbit, Cell Signaling Technology, Danvers Mass. 01923 USA); anti-MCL-1 (mouse, BD Biosciences, San Jose Calif. 95131 USA); anti-XIAP (rabbit, Cell Signaling Technology, Danvers Mass. 01923 USA); anti-Bcl-2 (mouse, Santa Cruz Biotechnology, Santa Cruz Calif. 95060); anti-Cyclin BI (mouse, BD Biosciences, San Jose Calif. 95131 USA); anti-Cyclin D1 (mouse, Santa Cruz Biotechnology, Santa Cruz Calif. 95060); Anti-Nek2 (mouse, BD Biosciences, San Jose Calif. 95131 USA); Anti-HEC1, (rabbit, GeneTex, Inc., Irvine Calif. 92606 USA); and anti-actin (mouse, Millipore, Billerica Mass. 01821 USA).
100 nM Taxol was used as a positive control drug for apoptosis.
In general terms: A western blot detects proteins with antibodies after separation by electrophoresis.

For a further data set, the system named is Caco-2 cell monolayers. Put plainly: Caco-2 cell permeability. The format is in vitro ADME. Particulars: 10 μM, 2 hour, both directions. The method, then:
Here, Caco-2 cell line (cat. HTB-37TM) was purchased from the ATCC. Cells were cultivated in T-75 flasks in a cell culture incubator set at 37° C., 5% CO2, 95% relative humidity. Cells were allowed to grow to reach 80-90% confluence before seeding. […] The cells were grown in culture medium consisting of Dulbecco's modified Eagle's medium supplemented with 10% fetal bovine serum, 100 U/mL penicillin and 100 μg/mL streptomycin. The culture medium was replaced every 2 days and the cells were maintained at 37° C., 95% relative humidity and 5% CO2.
For a quality integrity control of the monolayers of seeded cells, the Lucifer yellow (LY) transport experiment was performed to evaluate monolayer integrity. As for a quality control of each filter, the transepithelial electrical resistance (TEER) was measured before the start of and at the end of transport experiments. Physiologically and morphologically well developed Caco-2 cell monolayers with TEER values greater than 400 Ωcm^2 were used for the studies.
The solution volumes in apical and basolateral chambers were set to 0.4 and 0.6 ml respectively. Samples were taken from both the apical and basolateral compartment at the end of the 2 hour incubation at 37° C. […] The excitation and emission wavelengths were 490 nm and 530 nm, respectively.

A further data set deals with T1, hERG potassium channels (Homo sapiens, UniProt Q12809).
T1 construct: purchased PerkinElmer
Put plainly: [3H]Astemizole competitive binding assay, hERG. Conditions: [3H]-astemizole displacement, hERG membrane protein. How it is done: Here, [3H] Astemizole competitive binding assays were performed to determine the ability of compounds to displace the known radioligand [3H]-astemizole from the hERG potassium channels, following standard protocol with minor modifications. In brief, assays were performed in 200 μl of binding buffer (50 mM HEPES, pH 7.4, 60 mM KCl, and 0.1% BSA) containing 1.5 nM of [3H]astemizole, 3 μg/well of hERG membrane protein (PerkinElmer), and TAI-1 (in 1% DMSO final concentration) at 27° C. for 60 min. Nonspecific binding (NSB) was determined in the presence of 10 μM astemizole. […] Binding was terminated by rapid filtration onto polyethyleneimine-presoaked, buffer-washed UniFilter-96, GF/C (Perkin Elmer) using a vacuum manifold (Porvair Sciences). Captured radiolabel signal was detected using TopCount NXT (Perkin Elmer). […] All results are derived from two independent experiments.
In general terms: hERG is a cardiac potassium channel; its block is linked to QT prolongation.

One may read the AUC(0-inf) as the area under the concentration-time curve extrapolated to infinity. As usually defined, the AUC(0-t) is exposure summed from dosing to a finite time, without extrapolation to infinity. Broadly, the Cmax is the peak of the concentration-time curve. As usually defined, the MRT is the average time that molecules of a dose stay in the body. Usually Tmax stands for the time from dosing to the highest level. For orientation: half-life means how long it takes for the measured level to halve. As a reminder, the bioavailability is dose-corrected exposure relative to a reference, in per cent. The IC50 is the concentration that inhibits the measured activity by half.

T1 sequence (Q12809 whole entry): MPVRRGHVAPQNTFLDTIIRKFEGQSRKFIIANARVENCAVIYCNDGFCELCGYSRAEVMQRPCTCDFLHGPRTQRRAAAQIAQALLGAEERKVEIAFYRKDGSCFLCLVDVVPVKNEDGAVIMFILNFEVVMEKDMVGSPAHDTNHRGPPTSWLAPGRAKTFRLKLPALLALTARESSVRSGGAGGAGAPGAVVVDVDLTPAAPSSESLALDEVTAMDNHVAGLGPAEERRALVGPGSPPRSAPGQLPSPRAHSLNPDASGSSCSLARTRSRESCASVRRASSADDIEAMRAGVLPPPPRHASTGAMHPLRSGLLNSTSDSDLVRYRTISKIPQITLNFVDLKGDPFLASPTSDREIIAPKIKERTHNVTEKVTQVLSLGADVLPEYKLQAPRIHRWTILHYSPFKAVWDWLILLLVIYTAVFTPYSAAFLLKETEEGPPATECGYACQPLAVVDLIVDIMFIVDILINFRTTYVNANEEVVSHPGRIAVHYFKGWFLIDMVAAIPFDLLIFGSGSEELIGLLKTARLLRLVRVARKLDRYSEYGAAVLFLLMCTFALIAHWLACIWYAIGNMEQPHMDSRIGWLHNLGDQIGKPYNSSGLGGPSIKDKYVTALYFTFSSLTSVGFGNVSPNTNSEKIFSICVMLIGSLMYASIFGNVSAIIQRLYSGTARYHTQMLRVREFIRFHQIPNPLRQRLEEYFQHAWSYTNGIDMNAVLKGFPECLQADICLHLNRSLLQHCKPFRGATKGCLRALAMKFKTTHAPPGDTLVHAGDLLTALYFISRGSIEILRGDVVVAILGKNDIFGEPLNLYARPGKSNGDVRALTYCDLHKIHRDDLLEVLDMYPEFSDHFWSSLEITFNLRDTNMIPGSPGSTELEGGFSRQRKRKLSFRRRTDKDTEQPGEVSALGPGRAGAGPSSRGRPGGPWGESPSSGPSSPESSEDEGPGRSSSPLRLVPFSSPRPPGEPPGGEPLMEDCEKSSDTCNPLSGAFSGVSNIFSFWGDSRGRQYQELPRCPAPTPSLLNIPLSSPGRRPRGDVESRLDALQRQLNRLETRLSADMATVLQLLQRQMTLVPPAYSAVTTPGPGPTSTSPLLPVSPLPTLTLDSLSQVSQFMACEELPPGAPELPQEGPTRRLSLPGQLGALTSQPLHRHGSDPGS

For the compound `COCCOc1cnc(Sc2cc(C)c(-c3csc(NC(=O)c4ccncc4)n3)c(C)c2)cn1.Cl` [110095-HCl-1007], the AUC(0-inf) in [1] (PO 10.0 mg/kg) was 25100 ng·h/mL; in data set [2] (in vivo, iv, 1 mg/kg) it was 3000 ng·h/mL. In addition, the AUC(0-t) in data set [1] (PO 10.0 mg/kg) was 25100 ng·h/mL; in data set [2] (in vivo, iv, 1 mg/kg) it was 2980 ng·h/mL. Besides, in [1] (PO 10.0 mg/kg), the highest concentration (Cmax) worked out at 4060 ng/mL. For the same compound, the MRT in data set [1] (PO 10.0 mg/kg) stood at 4.11 h; in [2] (in vivo, iv, 1 mg/kg), 3.3 h. Moreover, the Tmax in data set [1] (PO 10.0 mg/kg) came out at 1 h. Further, the half-life was 2.81 h in [1] (PO 10.0 mg/kg) and 3.61 h in [2] (in vivo, iv, 1 mg/kg). In addition, in [1] (PO 10.0 mg/kg vs IV 1.00 mg/kg, read-out: F % (absolute bioavailability)), the bioavailability amounted to 84%. Also, the concentration at 0.5 h in data set [1] (PO 10 mg/kg, 0.5 h, read-out: mean concentration of 110095 in mouse plasma) turned out to be 1800 ng/mL; in data set [2] (plasma, IV 1 mg/kg, 0.5 h, read-out: mean concentration of 110095 in mouse plasma), 684 ng/mL. For the same compound, the concentration at 1 h came out at 4060 ng/mL in data set [1] (PO 10 mg/kg, 1 h, read-out: mean concentration of 110095 in mouse plasma) and 549 ng/mL in [2] (plasma, IV 1 mg/kg, 1 h, read-out: mean concentration of 110095 in mouse plasma). Besides, the concentration at […] in [1] (PO 10 mg/kg, 1.5 h, read-out: mean concentration of 110095 in mouse plasma) came out at 3660 ng/mL; in [2] (plasma, IV 1 mg/kg, 0.083 h, read-out: mean concentration of 110095 in mouse plasma), 870 ng/mL. Moreover, the concentration at 2 h in data set [1] (PO 10 mg/kg, 2 h, read-out: mean concentration of 110095 in mouse plasma) was 3560 ng/mL; in data set [2] (plasma, IV 1 mg/kg, 2 h, read-out: mean concentration of 110095 in mouse plasma), 422 ng/mL. The concentration at 4 h in data set [1] (PO 10 mg/kg, 4 h, read-out: mean concentration of 110095 in mouse plasma) amounted to 2170 ng/mL; in data set [2] (plasma, IV 1 mg/kg, 4 h, read-out: mean concentration of 110095 in mouse plasma) it was 202 ng/mL. The concentration at 6 h amounted to 1140 ng/mL in data set [1] (PO 10 mg/kg, 6 h, read-out: mean concentration of 110095 in mouse plasma) and 93.2 ng/mL in data set [2] (plasma, IV 1 mg/kg, 6 h, read-out: mean concentration of 110095 in mouse plasma). In addition, the concentration at 24 h was 14.8 ng/mL in [1] (PO 10 mg/kg, 24 h, read-out: mean concentration of 110095 in mouse plasma) and 3.68 ng/mL in data set [2] (plasma, IV 1 mg/kg, 24 h, read-out: mean concentration of 110095 in mouse plasma).
With `Cc1cc(Sc2cnccn2)cc(C)c1-c1csc(NC(=O)c2ccnc(F)c2)n1` [Compound 19, N-{4-(2,6-Dimethyl-4-(pyrazin-2-ylthio)phenyl)thiazol-2-yl}-2-fluoroisonicotinamide], the half-inhibitory concentration (IC50) with MDA-MB-468 is 60.1 nM; in the data set on K562 it was 37.6 nM; in the data set on MDA-MB-231 it was 32 nM; in the data set on Hela, 35.6 nM. Further, the “levels of apoptotic (caspase-3, PARP) and anti-apoptotic (Mcl-1, XIAP) proteins” value in data set [3] is listed as “cleavage of the apoptotic proteins accompanied by down-regulation of the anti-apoptotic proteins”.
In the case of `COCCOc1ccc(Oc2cc(C)c(-c3csc(NC(=O)c4ccnc(F)c4)n3)c(C)c2)cc1` [Compound 20, 2-Fluoro-N-(4-{4-(4-(2-methoxyethoxy)phenoxy)-2,6-dimethylphenyl}thiazol-2-yl)isonicotinamide], the IC50 came to 10.4 nM in the data set on MDA-MB-468, 14.1 nM in the data set with K562, 7.5 nM in the data set with MDA-MB-231 and 10.9 nM in the data set on Hela. The “levels of apoptotic (caspase-3, PARP) and anti-apoptotic (Mcl-1, XIAP) proteins” value in data set [3] is “cleavage of the apoptotic proteins accompanied by down-regulation of the anti-apoptotic proteins”.
With `COCCOc1cnc(Oc2cc(C)c(-c3csc(NC(=O)c4ccncc4)n3)c(C)c2)cn1` [Compound 22, N-(4-{4-(5-(2-Methoxyethoxy)pyrazin-2-yloxy)-2,6-dimethylphenyl}thiazol-2-yl)isonicotinamide], in the data set with Caco-2 cell monolayers, the Caco-2 permeability entry is “moderate Caco-2 permeability”. Besides, the concentration for half-maximal inhibition (IC50) on hERG potassium channels was greater than 10000 nM.
In the case of `COc1cnc(Sc2cc(C)c(-c3csc(NC(=O)c4ccncc4)n3)c(C)c2)cn1` [Compound 25, N-{4-(4-(5-Methoxypyrazin-2-ylthio)-2,6-dimethylphenyl)thiazol-2-yl}isonicotinamide], at hERG potassium channels, the IC50 is greater than 10000 nM.
